target: T1, recombinant alpha-glucosidase I (human full-length glucosidase I, Glu 1) (Homo sapiens, UniProt Q13724); test: Alpha-glucosidase I assay (Amplex Red glucose detection, synthetic trisaccharide substrate); format: biochemical; details: Glucosidase 1; read-out: Glu 1 IC50
T1 construct: 6-His (C); made in house; host or cells: HEK-293T cells transduced with BacMam virus (virus raised in Sf9)
T1 sequence (Q13724 1-837): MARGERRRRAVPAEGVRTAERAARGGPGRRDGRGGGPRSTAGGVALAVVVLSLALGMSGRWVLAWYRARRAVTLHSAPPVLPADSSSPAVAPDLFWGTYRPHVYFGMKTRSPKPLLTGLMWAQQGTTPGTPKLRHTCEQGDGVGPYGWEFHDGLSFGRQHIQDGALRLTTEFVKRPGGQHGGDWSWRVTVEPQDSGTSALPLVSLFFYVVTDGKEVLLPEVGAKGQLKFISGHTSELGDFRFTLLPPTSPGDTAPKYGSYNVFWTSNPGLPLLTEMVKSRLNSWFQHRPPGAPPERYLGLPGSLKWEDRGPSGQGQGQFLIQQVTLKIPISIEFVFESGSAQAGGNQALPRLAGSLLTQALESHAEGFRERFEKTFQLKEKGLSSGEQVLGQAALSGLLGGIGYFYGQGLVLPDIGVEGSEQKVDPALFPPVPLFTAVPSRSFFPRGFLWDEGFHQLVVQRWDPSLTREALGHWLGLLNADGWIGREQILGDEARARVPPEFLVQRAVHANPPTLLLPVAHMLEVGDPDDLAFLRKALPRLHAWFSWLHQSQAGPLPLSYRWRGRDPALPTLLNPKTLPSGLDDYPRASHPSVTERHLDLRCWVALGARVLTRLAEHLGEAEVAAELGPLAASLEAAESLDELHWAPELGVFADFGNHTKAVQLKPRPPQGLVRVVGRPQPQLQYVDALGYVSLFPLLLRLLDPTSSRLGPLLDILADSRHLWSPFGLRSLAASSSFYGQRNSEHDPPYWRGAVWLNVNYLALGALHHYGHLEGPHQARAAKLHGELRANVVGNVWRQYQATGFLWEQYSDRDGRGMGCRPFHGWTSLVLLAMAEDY
How it was run: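 Compound dilution series incubated 60 min at 37° C with recombinant His-tagged human glucosidase I ([…]), after which trisaccharide substrate analog was added for 90 min at 37° C. Reaction quenched with 1.5M Tris pH 8; D-glucose detected by Amplex Red fluorescence, 560/590 nm. 4-PL curve fit of percent inhibition gave IC50.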

Compared with `CC#Cc1ccc(NCCCCCCN2C[C@H](O)[C@@H](O)[C@H](O)[C@H]2CO)c([N+](=O)[O-])c1` [Compound 1290, (2R,3R,4R,5S)-2-(hydroxymethyl)-1-(6-{[2-nitro-4-(prop-1-yn-1-yl)phenyl]amino}hexyl)piperidine-3,4,5-triol], `Nc1ccc(NCCCCCCCCN2C[C@H](O)[C@@H](O)[C@H](O)[C@H]2CO)c([N+](=O)[O-])c1Cl` [Compound 1277, (2R,3R,4R,5S)-1-{8-[(4-amino-3-chloro-2-nitrophenyl)amino]octyl} 2-(hydroxymethyl)piperidine-3,4,5-triol] is 4.6-fold higher in IC50: 36 nM for the first, 166 nM for the second.

Going from `Cc1cc(NCc2cnc(CN3C[C@H](O)[C@@H](O)[C@H](O)[C@H]3CO)cn2)cc(-c2ccc[nH]2)c1` [Compound 1330, (2R,3R,4R,5S)-2-(hydroxymethyl)-1-{[5-({[3-methyl-5-(1H-pyrrol-2-yl)phenyl]amino}methyl)pyrazin-2-yl]methyl}piperidine-3,4,5-triol] to `Cc1cc(NCc2cccc(CN3C[C@H](O)[C@@H](O)[C@H](O)[C@H]3CO)c2)cc(-c2ccc[nH]2)c1` [Compound 1033, (2R,3R,4R,5S)-2-(hydroxymethyl)-1-{[3-({[3-methyl-5-(1H-pyrrol-2-yl)phenyl]amino}methyl)phenyl]methyl}piperidine-3,4,5-triol], the IC50 falls from 1420 nM to 9 nM (160-fold). The second is the more potent here.

Compared with `OC[C@@H]1[C@@H](O)[C@H](O)[C@@H](O)CN1CCCCCCNc1ccc(-c2ncccn2)cc1C(F)(F)F` [Compound 1258, (2R,3R,4R,5S)-2-(hydroxymethyl)-1-(6-{[4-(pyrimidin-2-yl)-2-(trifluoromethyl)phenyl]amino}hexyl)piperidine-3,4,5-triol], `OC[C@@H]1[C@@H](O)[C@H](O)[C@@H](O)CN1CCCCCCNc1ccc(-c2ncccn2)cc1F` [Compound 1229, (2R,3R,4R,5S)-1-(6-{[2-fluoro-4-(pyrimidin-2-yl)phenyl]amino}hexyl)-2-(hydroxymethyl)piperidine-3,4,5-triol] is 2.9-fold higher in IC50: 32 nM for the first, 94 nM for the second.

First: [N-]=[N+]=Nc1ccc(NCCc2cccc(CCN3C[C@H](O)[C@@H](O)[C@H](O)[C@H]3CO)c2)c([N+](=O)[O-])c1 [Compound 1240, (2R,3R,4R,5S)-1-[2-(3-{2-[(4-azido-2-nitrophenyl)amino]ethyl}phenyl)ethyl]-2-(hydroxymethyl)piperidine-3,4,5-triol]
Second: [N-]=[N+]=Nc1ccc(NCCOCCN2C[C@H](O)[C@@H](O)[C@H](O)[C@H]2CO)c([N+](=O)[O-])c1 [Compound 1255, (2R,3R,4R,5S)-1-(2-{2-[(4-azido-2-nitrophenyl)amino]ethoxy}ethyl)-2-(hydroxymethyl)piperidine-3,4,5-triol]
The IC50 of the first is 7.1-fold lower: 283 nM for the first, 2010 nM for the second. The first is the more potent here.

`COCCCCCN(CCCNc1ccc(N=[N+]=[N-])cc1[N+](=O)[O-])CCCN1C[C@H](O)[C@@H](O)[C@H](O)[C@H]1CO` [Compound 1221, (2R,3R,4R,5S)-1-[3-({3-[(4-azido-2-nitrophenyl)amino]propyl}(5-methoxypentyl)amino)propyl]-2-(hydroxymethyl)piperidine-3,4,5-triol] and `[N-]=[N+]=Nc1ccc(NCCS(=O)(=O)CCCN2C[C@H](O)[C@@H](O)[C@H](O)[C@H]2CO)c([N+](=O)[O-])c1` [Compound 1274, (2R,3R,4R,5S)-1-(3-{2-[(4-azido-2-nitrophenyl)amino]ethane-sulfonyl}propyl)-2-(hydroxymethyl)piperidine-3,4,5-triol] are within 1.5-fold of each other in IC50: 2230 nM for the first, 1550 nM for the second.

Compared with `[N-]=[N+]=Nc1ccc(NCCOC(=O)NCCN2C[C@H](O)[C@@H](O)[C@H](O)[C@H]2CO)c([N+](=O)[O-])c1` [Compound 1268, 2-[(4-azido-2-nitrophenyl)amino]ethyl N-{2-[(2R,3R,4R,5S)-3,4,5-trihydroxy-2-(hydroxymethyl)piperidin-1-yl]ethyl}carbamate], `[N-]=[N+]=Nc1ccc(NCCNS(=O)(=O)NCCN2C[C@H](O)[C@@H](O)[C@H](O)[C@H]2CO)c([N+](=O)[O-])c1` [Compound 1275, (2R,3R,4R,5S)-1-{2-[({2-[(4-azido-2-nitrophenyl)amino]ethyl}sulfamoyl)amino]ethyl}-2-(hydroxymethyl)piperidine-3,4,5-triol] is 2-fold higher in IC50: 1990 nM for the first, 4060 nM for the second.

`COc1cc(NCCCCCCN2C[C@H](O)[C@@H](O)[C@H](O)[C@H]2CO)cc(-c2ncco2)c1` [Compound 1216, (2R,3R,4R,5S)-2-(hydroxymethyl)-1-(6-{[3-methoxy-5-(1,3-oxazol-2-yl)phenyl]amino}hexyl)piperidine-3,4,5-triol] and `N#Cc1cc(-c2ncccn2)ccc1NCCCCCCN1C[C@H](O)[C@@H](O)[C@H](O)[C@H]1CO` [Compound 1256, 5-(pyrimidin-2-yl)-2-({6-[(2R,3R,4R,5S)-3,4,5-trihydroxy-2-(hydroxymethyl)piperidin-1-yl]hexyl}amino)benzonitrile] are within 1.5-fold of each other in IC50: 67 nM for the first, 90 nM for the second.

Going from `[N-]=[N+]=Nc1ccc(NCCC(O)C(O)CCN2C[C@H](O)[C@@H](O)[C@H](O)[C@H]2CO)c([N+](=O)[O-])c1` (stereo partly drawn) [Compound 1270, (2R,3R,4R,5S)-1-{6-[(4-azido-2-nitrophenyl)amino]-3,4-dihydroxy-hexyl}-2-(hydroxymethyl)piperidine-3,4,5-triol] to `[N-]=[N+]=Nc1ccc(NCCN2CC(OCCN3C[C@H](O)[C@@H](O)[C@H](O)[C@H]3CO)C2)c([N+](=O)[O-])c1` [Compound 1271, (2R,3R,4R,5S)-1-{2-[(1-{2-[(4-azido-2-nitrophenyl)amino]ethyl}azetidin-3-yl)oxy]ethyl}-2-(hydroxymethyl)piperidine-3,4,5-triol], the IC50 rises from 358 nM to 1070 nM (3-fold). The first is the more potent here.

`Cc1cc(NCc2cccc(CN3C[C@H](O)[C@@H](O)[C@H](O)[C@H]3CO)c2)cc(-c2cccnn2)c1` [Compound 1034, (2R,3R,4R,5S)-2-(hydroxymethyl)-1-{[3-({[3-methyl-5-(pyridazin-3-yl)phenyl]amino}methyl)phenyl]methyl}piperidine-3,4,5-triol] and `Cc1cc(NCc2cccc(CN3C[C@H](O)[C@@H](O)[C@H](O)[C@H]3CO)c2)cc(C2=COCCO2)c1` [Compound 1032, (2R,3R,4R,5S)-1-{[3-({[3-(5,6-dihydro-1,4-dioxin-2-yl)-5-methylphenyl]amino}methyl)phenyl]methyl}-2-(hydroxymethyl)piperidine-3,4,5-triol] are within 1.5-fold of each other in IC50: 20 nM for the first, 16 nM for the second.

Compared with `COc1ccc(CCCCCCCN2C[C@H](O)[C@@H](O)[C@H](O)[C@H]2CO)cc1` [Compound 1309, (2R,3R,4R,5S)-2-(hydroxymethyl)-1-[7-(4-methoxyphenyl)heptyl]piperidine-3,4,5-triol], `Cc1cc(Br)cc(NCc2ccc(CN3C[C@H](O)[C@@H](O)[C@H](O)[C@H]3CO)cc2)c1` [Compound 1024, (2R,3R,4R,5S)-1-[(4-{[(3-bromo-5-methylphenyl)amino]methyl}phenyl)methyl]-2-(hydroxymethyl)piperidine-3,4,5-triol] is 88-fold lower in IC50: 700 nM for the first, 8 nM for the second.

Compared with `N#Cc1cc(Br)cc(NCc2cccc(CN3C[C@H](O)[C@@H](O)[C@H](O)[C@H]3CO)c2)c1` [Compound 1023, 3-bromo-5-{[(3-{[(2R,3R,4R,5S)-3,4,5-trihydroxy-2-(hydroxymethyl)piperidin-1-yl]methyl}phenyl)methyl]amino}benzonitrile], `OC[C@@H]1[C@@H](O)[C@H](O)[C@@H](O)CN1Cc1ccc(CNc2ccc(Br)cc2)cc1` [Compound 1028, (2R,3R,4R,5S)-1-[(4-{[(4-bromophenyl)amino]methyl}phenyl)methyl]-2-(hydroxymethyl)piperidine-3,4,5-triol] is lower in IC50: 15 nM for the first, under 1 nM for the second.

Going from `Nc1ccc(NCCc2ccccc2CCN2C[C@H](O)[C@@H](O)[C@H](O)[C@H]2CO)c([N+](=O)[O-])c1Cl` [Compound 1239, (2R,3R,4R,5S)-1-[2-(2-{2-[(4-amino-3-chloro-2-nitrophenyl)amino]ethyl}phenyl)ethyl]-2-(hydroxymethyl)piperidine-3,4,5-triol] to `O=[N+]([O-])c1cc(N2CC3CC2CO3)ccc1NCc1ccc(CN2C[C@@H](O)[C@H](O)[C@@H](O)[C@@H]2CO)cc1` (stereo in doubt) [Compound 1015, (2S,3S,4S,5R)-2-(hydroxymethyl)-1-[(4-{[(2-nitro-4-{2-oxa-5-azabicyclo[2.2.1]heptan-5-yl}phenyl)amino]methyl}phenyl)methyl]piperidine-3,4,5-triol], the IC50 falls from 1440 nM to 9 nM (160-fold). The second is the more potent here.

`Cc1cc(NCc2ccc(CN3C[C@H](O)[C@@H](O)[C@H](O)[C@H]3CO)cc2)cc(-n2ccnn2)c1` [Compound 1323, (2R,3R,4R,5S)-2-(hydroxymethyl)-1-{[4-({[3-methyl-5-(1H-1,2,3-triazol-1-yl)phenyl]amino}methyl)phenyl]methyl}piperidine-3,4,5-triol] gave an IC50 of 11 nM.
